Values quoted from earlier work, collected in publication PMC2810227, “3-O-Methylfunicone, a Selective Inhibitor of Mammalian Y-Family DNA Polymerases from an Australian Sea Salt Fungal Strain” (Marine Drugs, 2009).

Experiments:
[1] = test system: pol α; parameters: method as in PMID 467434; conditions: not competing with the other three deoxynucleoside triphosphates; cited from earlier work
[2] = test system: family B pols, such as pols α, δ and ɛ; parameters: method as in PMID 467434; conditions: cited from earlier work

## C[C@@]1(CO)[C@H](O)CC[C@@]2(C)[C@H]1CC[C@H]1C[C@@H]3C[C@@]12CC[C@]3(O)CO [aphidicolin]
[1]
  mode of inhibition of pol α with respect to individual deoxynucleoside triphosphates: competing with dCTP
[2]; activated DNA
  mode of inhibition with the DNA template-primer: uncompetitive
[2]
  mode of inhibition with respect to the dNTP substrate: competitive
